# Patent US6713517B1, “Use of aryl N-substituted carboxamides directly and as radio-and chemosensitizers for killing tumor and cancer cells and novel compounds for such use” (OXiGENE, Inc., priority 1996, dated 2004)
# “Also recorded” adds a separate entry of the source.
# What was measured:
# [1] = Solubility in water of the hydrochloride salt; type: physicochemical; settings: amorphous hydrochloride salt
# Experimental: Preparation of the hydrochloride salt of N-(2-diethylamino-ethyl)nicotinamide. The free base [compound (3)] was dissolved in n-propanol+n-butanol+0.1 M HClaq (2:1:1, v/v/v). An aliquate of 2 M aqueous […] was added to adjust the pH to 2. The solution was concentrated and the resulting amorphous material was dried under vacuum overnight.
# [2] = tested on: human lymphocytes (purified mononuclear leukocytes); type: cell-based; settings: for radiosensitization of cytotoxicity by apoptosis: 1 Gy radiation plus drug (100 μM MCA or 1000 μM others), FIG. 6B; for induction of / effect on apoptotic cytotoxicity: drug alone (FIG. 6A) or with 1 Gy radiation (FIG. 6B)
# Experimental: Evaluation of radiosensitization by apoptotic cytotoxicity. […] The cells were first exposed to the drugs for 30 minutes at 37° C. before being given 1 Gy irradiation (^137cesium source, Scanditronix, 1.56 Gy/min). The apoptotic and necrotic cells were analyzed and scored by phase contrast morphological criteria. Apoptotic cells have condensed chromatin and are trypan blue negative whereas necrotic cells stain blue with trypan blue.
solubility in water [1],Compound,radiosensitization of cytotoxicity by apoptosis [2],induction of / effect on apoptotic cytotoxicity [2]
readily soluble in water,CCN(CC)CCNC(=O)c1cccnc1.Cl [N-(2-diethylaminoethyl) nicotinamide HCl],,
,NC(=O)c1cccnc1 [nicotinamide],not and does not sensitize cytotoxicity by apoptosis,not able to affect cytotoxicity by apoptosis
,"CCN(CC)CCNC(=O)c1cc(Cl)c(N)cc1OC [metoclopramide, 4-amino-5-chloro-N-(2-diethylamino-ethyl)-2-methoxybenzamide]",having the properties to sensitize apoptotic cell killing by radiation; also recorded: effective,capable of inducing apoptotic cytotoxicity
